According to ChEMBL document CHEMBL5291721, “A preclinical secondary pharmacology resource illuminates target-adverse drug reaction associations of marketed drugs” (Nat Commun, 2023):

What was measured:
Mu-type opioid receptor = Mu-type opioid receptor (Homo sapiens, UniProt P35372)
D(3) dopamine receptor [1] = biological target: T1, D(3) dopamine receptor (Homo sapiens, UniProt P35462)
D(3) dopamine receptor [2] = biological target: T1, D(3) dopamine receptor; remark: listed apart in the source
[3] = biological target: T2, Alpha-2A adrenergic receptor (Homo sapiens, UniProt P08913)
T2 sequence (P08913 whole entry): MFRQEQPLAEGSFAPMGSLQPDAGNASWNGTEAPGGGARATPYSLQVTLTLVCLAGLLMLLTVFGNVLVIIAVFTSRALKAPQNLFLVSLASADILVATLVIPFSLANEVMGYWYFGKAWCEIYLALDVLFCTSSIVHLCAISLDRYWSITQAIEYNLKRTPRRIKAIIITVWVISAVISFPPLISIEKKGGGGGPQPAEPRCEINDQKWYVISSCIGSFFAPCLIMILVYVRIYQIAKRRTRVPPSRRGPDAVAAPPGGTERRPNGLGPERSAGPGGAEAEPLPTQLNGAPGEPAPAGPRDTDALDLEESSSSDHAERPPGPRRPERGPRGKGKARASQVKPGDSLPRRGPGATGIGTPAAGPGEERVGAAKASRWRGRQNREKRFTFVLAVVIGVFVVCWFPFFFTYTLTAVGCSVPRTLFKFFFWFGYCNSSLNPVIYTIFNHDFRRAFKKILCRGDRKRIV

[4] = biological target: T3, Alpha-1A adrenergic receptor (Homo sapiens, UniProt P35348); type: functional, cell-based
T3 sequence (P35348 whole entry): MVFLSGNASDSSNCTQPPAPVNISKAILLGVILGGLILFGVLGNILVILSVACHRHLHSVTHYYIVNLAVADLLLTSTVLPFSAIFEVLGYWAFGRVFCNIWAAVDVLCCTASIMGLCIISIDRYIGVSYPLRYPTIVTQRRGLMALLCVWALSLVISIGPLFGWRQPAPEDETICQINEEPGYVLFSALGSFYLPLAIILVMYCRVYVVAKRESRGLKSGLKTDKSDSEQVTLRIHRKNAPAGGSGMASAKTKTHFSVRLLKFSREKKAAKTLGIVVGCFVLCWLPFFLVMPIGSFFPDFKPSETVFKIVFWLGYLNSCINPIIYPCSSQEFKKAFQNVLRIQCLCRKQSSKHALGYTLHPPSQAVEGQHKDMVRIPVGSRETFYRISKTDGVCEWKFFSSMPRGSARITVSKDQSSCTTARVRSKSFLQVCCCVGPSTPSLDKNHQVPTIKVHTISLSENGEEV

[5] = biological target: 3',5'-cyclic-AMP phosphodiesterase 4A (Homo sapiens, UniProt P27815); type: functional
[6] = biological target: T4, Amine oxidase [flavin-containing] A (Homo sapiens, UniProt P21397); type: functional
T4 sequence (P21397 whole entry): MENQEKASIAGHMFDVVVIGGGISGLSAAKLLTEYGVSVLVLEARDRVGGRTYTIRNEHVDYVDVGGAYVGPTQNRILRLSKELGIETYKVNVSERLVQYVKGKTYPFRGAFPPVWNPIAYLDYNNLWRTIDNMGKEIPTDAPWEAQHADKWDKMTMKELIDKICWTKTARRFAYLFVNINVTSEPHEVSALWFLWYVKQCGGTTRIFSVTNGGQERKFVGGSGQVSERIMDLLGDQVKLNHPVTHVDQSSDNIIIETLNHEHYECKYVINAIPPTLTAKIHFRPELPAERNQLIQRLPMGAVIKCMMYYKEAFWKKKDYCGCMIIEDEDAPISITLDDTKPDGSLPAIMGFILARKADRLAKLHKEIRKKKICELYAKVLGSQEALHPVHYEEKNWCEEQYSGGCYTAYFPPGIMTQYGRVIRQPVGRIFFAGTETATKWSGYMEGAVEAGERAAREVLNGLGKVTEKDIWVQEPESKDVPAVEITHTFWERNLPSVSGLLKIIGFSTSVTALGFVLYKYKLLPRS

Histamine H3 receptor = Histamine H3 receptor (Homo sapiens, UniProt Q9Y5N1)
D(1A) dopamine receptor = D(1A) dopamine receptor (Homo sapiens, UniProt P21728)
[7] = biological target: 5-hydroxytryptamine receptor 2B (Homo sapiens, UniProt P41595); type: functional, cell-based
[8] = biological target: T2, Alpha-2A adrenergic receptor; type: functional, cell-based
Acetylcholinesterase = Acetylcholinesterase (Homo sapiens, UniProt P22303); type: functional
Melanocortin receptor 3 = Melanocortin receptor 3 (Homo sapiens, UniProt P41968)
[9] = biological target: T5, Prostaglandin G/H synthase 1 (Rattus norvegicus, UniProt Q63921); type: functional
T5 sequence (Q63921 whole entry): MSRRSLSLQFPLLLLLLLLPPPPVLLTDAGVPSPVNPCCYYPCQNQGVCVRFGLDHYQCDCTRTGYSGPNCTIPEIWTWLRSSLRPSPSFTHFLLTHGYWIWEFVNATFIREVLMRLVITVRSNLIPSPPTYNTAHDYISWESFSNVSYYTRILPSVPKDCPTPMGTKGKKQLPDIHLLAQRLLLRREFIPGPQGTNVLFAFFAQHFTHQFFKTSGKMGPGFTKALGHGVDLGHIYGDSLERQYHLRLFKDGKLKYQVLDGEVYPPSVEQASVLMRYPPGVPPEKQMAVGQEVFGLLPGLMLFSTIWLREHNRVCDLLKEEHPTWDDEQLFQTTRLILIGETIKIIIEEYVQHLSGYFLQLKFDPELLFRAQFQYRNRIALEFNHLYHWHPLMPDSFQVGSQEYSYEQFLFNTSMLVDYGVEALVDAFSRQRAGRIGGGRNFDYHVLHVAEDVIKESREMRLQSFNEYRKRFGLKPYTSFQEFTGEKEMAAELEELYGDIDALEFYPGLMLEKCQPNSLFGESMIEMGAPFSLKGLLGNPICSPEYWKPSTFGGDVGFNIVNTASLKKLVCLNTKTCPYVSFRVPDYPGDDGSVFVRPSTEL
Note: assay procedure not described here.

Chain of 5-hydroxytryptamine receptor 2B (P41595 whole entry): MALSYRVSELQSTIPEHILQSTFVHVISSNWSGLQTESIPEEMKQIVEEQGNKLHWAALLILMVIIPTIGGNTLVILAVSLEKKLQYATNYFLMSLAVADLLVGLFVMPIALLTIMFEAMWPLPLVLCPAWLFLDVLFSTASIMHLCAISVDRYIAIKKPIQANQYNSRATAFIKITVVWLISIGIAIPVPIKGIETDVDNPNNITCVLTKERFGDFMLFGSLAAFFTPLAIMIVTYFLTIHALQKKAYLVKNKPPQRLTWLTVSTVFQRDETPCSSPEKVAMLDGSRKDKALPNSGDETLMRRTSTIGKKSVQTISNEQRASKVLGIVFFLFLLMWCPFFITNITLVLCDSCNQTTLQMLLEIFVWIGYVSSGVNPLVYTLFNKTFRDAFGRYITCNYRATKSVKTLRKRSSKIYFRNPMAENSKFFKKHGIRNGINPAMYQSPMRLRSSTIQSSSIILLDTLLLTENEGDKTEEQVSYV
Chain of Mu-type opioid receptor (P35372 whole entry): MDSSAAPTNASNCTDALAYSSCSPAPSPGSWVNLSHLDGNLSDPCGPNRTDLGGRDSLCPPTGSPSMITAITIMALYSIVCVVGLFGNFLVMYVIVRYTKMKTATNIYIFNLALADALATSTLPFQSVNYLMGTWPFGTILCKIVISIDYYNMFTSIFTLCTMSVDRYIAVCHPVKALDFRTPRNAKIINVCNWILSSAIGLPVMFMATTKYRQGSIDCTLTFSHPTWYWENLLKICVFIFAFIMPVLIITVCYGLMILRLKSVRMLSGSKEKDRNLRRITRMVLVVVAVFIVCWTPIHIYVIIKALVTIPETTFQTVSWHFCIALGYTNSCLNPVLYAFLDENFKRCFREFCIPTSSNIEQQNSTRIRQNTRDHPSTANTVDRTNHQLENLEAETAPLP
Chain of Histamine H3 receptor (Q9Y5N1 whole entry): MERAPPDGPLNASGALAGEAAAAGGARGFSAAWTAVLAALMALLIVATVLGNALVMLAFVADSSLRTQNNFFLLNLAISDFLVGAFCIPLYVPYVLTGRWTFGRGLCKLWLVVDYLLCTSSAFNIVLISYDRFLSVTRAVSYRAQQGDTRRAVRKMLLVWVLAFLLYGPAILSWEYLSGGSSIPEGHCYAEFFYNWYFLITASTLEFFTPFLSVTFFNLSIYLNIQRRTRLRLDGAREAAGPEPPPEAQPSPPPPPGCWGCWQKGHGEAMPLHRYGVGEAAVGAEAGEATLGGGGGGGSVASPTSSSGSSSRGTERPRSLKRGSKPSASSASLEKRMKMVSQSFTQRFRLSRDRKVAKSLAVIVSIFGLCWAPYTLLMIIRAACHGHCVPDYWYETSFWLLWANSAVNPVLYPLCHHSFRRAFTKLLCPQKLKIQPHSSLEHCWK
T1 sequence (P35462 whole entry): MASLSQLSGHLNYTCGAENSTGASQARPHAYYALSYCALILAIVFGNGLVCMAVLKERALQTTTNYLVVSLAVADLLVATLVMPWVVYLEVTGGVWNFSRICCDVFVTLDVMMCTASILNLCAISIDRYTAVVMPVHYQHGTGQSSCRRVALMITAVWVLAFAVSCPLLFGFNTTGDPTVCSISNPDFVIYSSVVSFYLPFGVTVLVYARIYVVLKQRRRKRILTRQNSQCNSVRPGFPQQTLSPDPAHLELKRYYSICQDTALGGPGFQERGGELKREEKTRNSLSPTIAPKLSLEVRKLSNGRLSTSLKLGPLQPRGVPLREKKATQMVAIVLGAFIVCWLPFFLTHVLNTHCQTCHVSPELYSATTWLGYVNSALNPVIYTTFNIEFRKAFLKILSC
Chain of 3',5'-cyclic-AMP phosphodiesterase 4A (P27815 whole entry): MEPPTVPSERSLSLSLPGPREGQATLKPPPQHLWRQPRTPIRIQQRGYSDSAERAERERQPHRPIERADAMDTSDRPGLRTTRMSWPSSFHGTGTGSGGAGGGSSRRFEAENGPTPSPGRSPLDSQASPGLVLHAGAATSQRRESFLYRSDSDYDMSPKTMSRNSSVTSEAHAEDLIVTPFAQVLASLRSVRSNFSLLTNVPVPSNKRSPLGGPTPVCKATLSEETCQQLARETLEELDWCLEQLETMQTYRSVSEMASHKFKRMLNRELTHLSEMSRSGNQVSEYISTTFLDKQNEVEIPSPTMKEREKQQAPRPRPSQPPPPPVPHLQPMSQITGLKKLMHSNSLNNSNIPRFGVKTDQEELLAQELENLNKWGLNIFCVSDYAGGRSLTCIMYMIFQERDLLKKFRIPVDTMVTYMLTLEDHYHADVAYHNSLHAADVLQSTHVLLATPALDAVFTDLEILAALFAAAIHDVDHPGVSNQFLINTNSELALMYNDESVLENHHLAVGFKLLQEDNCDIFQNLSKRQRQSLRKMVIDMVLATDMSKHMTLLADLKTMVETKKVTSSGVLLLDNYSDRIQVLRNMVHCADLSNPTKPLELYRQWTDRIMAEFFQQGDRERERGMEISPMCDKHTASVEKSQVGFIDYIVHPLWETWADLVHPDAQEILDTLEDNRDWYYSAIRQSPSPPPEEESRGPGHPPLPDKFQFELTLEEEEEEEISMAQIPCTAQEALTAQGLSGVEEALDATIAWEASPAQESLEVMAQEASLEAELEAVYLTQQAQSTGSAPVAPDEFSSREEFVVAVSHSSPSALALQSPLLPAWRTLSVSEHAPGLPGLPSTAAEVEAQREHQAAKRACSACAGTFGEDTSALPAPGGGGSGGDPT
Chain of D(1A) dopamine receptor (P21728 whole entry): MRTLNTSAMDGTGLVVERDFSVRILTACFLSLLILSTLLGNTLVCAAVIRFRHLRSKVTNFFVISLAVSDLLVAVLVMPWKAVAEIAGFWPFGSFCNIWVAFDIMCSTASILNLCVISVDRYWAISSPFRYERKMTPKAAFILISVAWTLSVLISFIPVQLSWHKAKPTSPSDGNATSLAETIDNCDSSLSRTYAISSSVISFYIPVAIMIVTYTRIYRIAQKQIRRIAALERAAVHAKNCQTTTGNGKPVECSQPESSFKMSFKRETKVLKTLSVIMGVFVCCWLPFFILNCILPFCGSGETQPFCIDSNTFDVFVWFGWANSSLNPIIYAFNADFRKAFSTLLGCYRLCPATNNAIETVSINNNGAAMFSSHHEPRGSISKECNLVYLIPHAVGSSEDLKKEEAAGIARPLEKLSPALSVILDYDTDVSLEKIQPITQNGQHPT
Chain of Acetylcholinesterase (P22303 whole entry): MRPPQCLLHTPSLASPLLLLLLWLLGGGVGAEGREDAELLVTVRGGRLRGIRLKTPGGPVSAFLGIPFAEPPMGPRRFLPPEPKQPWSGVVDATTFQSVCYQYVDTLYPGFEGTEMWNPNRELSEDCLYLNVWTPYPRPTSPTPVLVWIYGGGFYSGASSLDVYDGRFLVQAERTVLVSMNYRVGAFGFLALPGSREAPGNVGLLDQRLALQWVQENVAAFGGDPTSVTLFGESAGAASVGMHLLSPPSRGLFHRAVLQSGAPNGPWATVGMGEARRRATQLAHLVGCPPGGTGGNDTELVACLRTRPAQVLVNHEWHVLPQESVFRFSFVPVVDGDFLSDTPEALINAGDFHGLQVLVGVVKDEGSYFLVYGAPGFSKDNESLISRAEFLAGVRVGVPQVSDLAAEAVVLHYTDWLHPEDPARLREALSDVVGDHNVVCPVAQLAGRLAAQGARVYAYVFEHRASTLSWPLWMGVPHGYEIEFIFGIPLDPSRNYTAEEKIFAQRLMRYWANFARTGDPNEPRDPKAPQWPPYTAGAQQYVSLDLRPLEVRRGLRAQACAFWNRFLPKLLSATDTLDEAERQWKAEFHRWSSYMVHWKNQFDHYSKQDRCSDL
Chain of Melanocortin receptor 3 (P41968 whole entry): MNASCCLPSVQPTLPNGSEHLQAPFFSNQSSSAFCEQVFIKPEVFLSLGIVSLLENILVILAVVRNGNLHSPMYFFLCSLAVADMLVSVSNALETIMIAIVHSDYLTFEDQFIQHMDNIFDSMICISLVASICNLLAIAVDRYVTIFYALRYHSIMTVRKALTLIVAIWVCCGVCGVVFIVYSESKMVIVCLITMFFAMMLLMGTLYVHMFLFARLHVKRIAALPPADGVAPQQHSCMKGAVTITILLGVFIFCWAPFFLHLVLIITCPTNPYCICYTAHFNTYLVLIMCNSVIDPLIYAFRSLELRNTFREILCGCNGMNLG

Compound | AC50 (Mu-type opioid receptor) | AC50 (D(3) dopamine receptor [1]) | AC50 (D(3) dopamine receptor [2]) | AC50 [3] | AC50 [4] | AC50 [5] | AC50 [6] | AC50 (Histamine H3 receptor) | AC50 (D(1A) dopamine receptor) | AC50 [7] | AC50 [8] | AC50 (Acetylcholinesterase) | AC50 (Melanocortin receptor 3) | AC50 [9]
CO/N=C(\C(=O)N[C@@H]1C(=O)N2C(C(=O)OCOC(=O)C(C)(C)C)=C(C)CS[C@H]12)c1csc(N)n1 | > 30 µM | > 30 µM | > 30 µM | > 30 µM | > 30 µM | > 30 µM | > 30 µM | > 30 µM | > 30 µM | > 30 µM | > 30 µM | > 30 µM |  | 
O=C(Cn1ccnc1[N+](=O)[O-])NCc1ccccc1 [BENZNIDAZOLE] | > 30 µM | > 30 µM | > 30 µM | > 30 µM | > 30 µM | > 30 µM | > 30 µM | > 30 µM | > 30 µM | > 30 µM | > 30 µM | > 30 µM | > 30 µM | > 30 µM
COCC1=C(C(=O)OC(C)OC(=O)OC(C)C)N2C(=O)[C@@H](NC(=O)/C(=N\OC)c3csc(N)n3)[C@H]2SC1 (some centres undefined) [CEFPODOXIME PROXETIL] | > 30 µM | > 30 µM | > 30 µM | > 30 µM | > 30 µM | > 30 µM | > 30 µM | > 30 µM | > 30 µM | > 30 µM | > 30 µM | > 30 µM |  | 
NS(=O)(=O)c1cc2c(cc1Cl)NC(CC1CCCC1)NS2(=O)=O (centres undefined) [CYCLOPENTHIAZIDE] | > 30 µM | > 30 µM | > 30 µM | > 30 µM | > 30 µM | > 30 µM | > 30 µM | > 30 µM | > 30 µM | > 30 µM | > 30 µM | > 30 µM |  | 
O=C(Nc1ccccc1)OCC(CN1CCCCC1)OC(=O)Nc1ccccc1 (centres undefined) [DIPERODON] | 11.2 µM | 23.5 µM | 1.3 µM | > 30 µM | > 30 µM | > 30 µM | > 10 µM | > 30 µM | > 30 µM | 15 µM | > 10 µM | > 30 µM | > 30 µM | > 30 µM
N/N=c1/cc2c(n[nH]1)CCN(C(=O)c1ccccc1)C2 [ENDRALAZINE] | > 30 µM | > 30 µM | > 30 µM | > 30 µM | > 30 µM | > 30 µM | > 30 µM | > 30 µM | > 30 µM | > 30 µM | > 30 µM | > 30 µM |  | 
CN1C(=O)N(C)C2C1N(C)C(=O)N2C (centres undefined) [MEBICAR] | > 30 µM | > 30 µM | > 30 µM | > 30 µM | > 30 µM | > 30 µM | > 30 µM | > 30 µM | > 30 µM | > 30 µM | > 30 µM | > 30 µM |  | 
Nc1ccc(/N=N/c2ccccc2)c(N)n1 [PHENAZOPYRIDINE] | > 30 µM | > 30 µM | 3.1 µM | > 30 µM | > 30 µM | 22.5 µM | > 30 µM | > 30 µM | 9.35 µM | 24 µM | > 30 µM | > 3 µM |  | 
O=C1CCC(N2C(=O)c3ccccc3C2=O)C(=O)N1 (centres undefined) [THALIDOMIDE] | 0.202 µM | > 30 µM | > 10 µM | > 30 µM | > 30 µM | > 30 µM | > 10 µM | > 30 µM | > 30 µM | > 10 µM | > 10 µM | > 30 µM | > 30 µM | > 30 µM
